Results as given in ChEMBL document CHEMBL1201862, “PubChem BioAssay data set” (2004).
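Five compound concentrations were applied to cells in 96-well plates for 48 hours; endpoints were derived by simple linear interpolation of the resulting dose-response curve. The concentration for 50% growth inhibition is given as GI50.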 Activity calls are given as the source filed them. No stated cut-off is given here; in the data, active = GI50 up to about 1.1 µM and inactive = higher.

How the values were obtained:
Experiment in all cases: NCI-60 cell line screen, 48 h
[1] = system: HOP-92
[2] = system: UO-31
[3] = system: UACC-257
[4] = system: RXF 393
[5] = system: SK-OV-3
[6] = system: EKVX
[7] = system: SK-MEL-2
[8] = system: OVCAR-5
[9] = system: UACC-62
[10] = system: SNB-75
[11] = system: M14
[12] = system: HT-29
[13] = system: OVCAR-3
[14] = system: NCI-H226
[15] = system: A549
[16] = system: NCI-H522
[17] = system: SK-MEL-28
[18] = system: OVCAR-4
[19] = system: SF-295

SMILES | GI50 [1] | GI50 [2] | GI50 [3] | GI50 [4] | GI50 [5] | GI50 [6] | GI50 [7] | GI50 [8] | GI50 [9] | GI50 [10] | GI50 [11] | GI50 [12] | GI50 [13] | GI50 [14] | GI50 [15] | GI50 [16] | GI50 [17] | GI50 [18] | GI50 [19]
Cn1cc2ccccc2c1-c1nc(F)nc(Oc2ccc3c(c2)CC[C@@H]2C3CC[C@@]3(C)C2CC[C@@H]3O)n1 (stereo partly specified) | 7.78 µM (inactive) | 24.4 µM (inactive) | 21.3 µM (inactive) | 3.08 µM (inactive) | 19.3 µM (inactive) | 15.6 µM (inactive) | 4.2 µM (inactive) | 18.6 µM (inactive) | 17.1 µM (inactive) | 16.7 µM (inactive) | 8.71 µM (inactive) | 18.7 µM (inactive) | 9.33 µM (inactive) | 13.5 µM (inactive) | 24.8 µM (inactive) | 3.4 µM (inactive) | 10.4 µM (inactive) | 7.43 µM (inactive) | 22.6 µM (inactive)
CC(=O)OCCc1cccnc1/C=N/O | > 100 µM (inactive) | > 100 µM (inactive) | > 100 µM (inactive) | > 100 µM (inactive) | > 100 µM (inactive) | > 100 µM (inactive) | > 100 µM (inactive) | > 100 µM (inactive) | > 100 µM (inactive) | > 100 µM (inactive) | > 100 µM (inactive) | > 100 µM (inactive) | > 100 µM (inactive) | 77.6 µM (inactive) | > 100 µM (inactive) | > 100 µM (inactive) | > 100 µM (inactive) | > 100 µM (inactive) | > 100 µM (inactive)
O=C1CCC2CCOc3ccc(O)c1c32 (stereo unspecified) | > 100 µM (inactive) | > 100 µM (inactive) | > 100 µM (inactive) | > 100 µM (inactive) | > 100 µM (inactive) | > 100 µM (inactive) | > 100 µM (inactive) | > 100 µM (inactive) | > 100 µM (inactive) | > 100 µM (inactive) | > 100 µM (inactive) | > 100 µM (inactive) | > 100 µM (inactive) | > 100 µM (inactive) | > 100 µM (inactive) | > 100 µM (inactive) | > 100 µM (inactive) | > 100 µM (inactive) | > 100 µM (inactive)
COc1cc(O)c(C(=O)/C=C/c2ccc(OC)c(OCc3ccccc3)c2)c(OC)c1 | > 100 µM (inactive) | > 100 µM (inactive) | > 100 µM (inactive) | 5.21 µM (inactive) | > 100 µM (inactive) | > 100 µM (inactive) | 37.8 µM (inactive) | > 100 µM (inactive) | 1.42 µM (inactive) | 22.1 µM (inactive) | > 100 µM (inactive) | > 100 µM (inactive) | 38.5 µM (inactive) | > 100 µM (inactive) | 64.6 µM (inactive) | 7.46 µM (inactive) |  | > 100 µM (inactive) | 0.301 µM (active)
N#CC1C(=O)NC(=O)C1=O (stereo unspecified) | > 100 µM (inactive) | > 100 µM (inactive) | > 100 µM (inactive) | > 100 µM (inactive) | > 100 µM (inactive) | > 100 µM (inactive) | > 100 µM (inactive) | > 100 µM (inactive) | > 100 µM (inactive) | > 100 µM (inactive) | > 100 µM (inactive) | > 100 µM (inactive) | > 100 µM (inactive) | > 100 µM (inactive) |  | > 100 µM (inactive) | > 100 µM (inactive) | > 100 µM (inactive) | > 100 µM (inactive)
CCN1/C(=C/C(C)=C/c2sc3ccccc3[n+]2CC)Sc2ccccc21 | < 0.01 µM (active) | 0.0811 µM (active) |  | 0.273 µM (active) | 0.0769 µM (active) | 0.0885 µM (active) | 0.201 µM (active) | 0.431 µM (active) | 0.0927 µM (active) | 0.239 µM (active) | 0.212 µM (active) | 0.307 µM (active) | 0.172 µM (active) | 0.0625 µM (active) | 0.0843 µM (active) | 0.0574 µM (active) | 0.0285 µM (active) | 0.361 µM (active) | 0.112 µM (active)
